This note sets out measurements from a polymer gas permeability compilation.

The compound `*Oc1cc2c(cc1O*)C1(CC2(C)C)CC(C)(C)c2cc3oc4cc5c(=O)n(-c6c(C)c(C)c(N7C(=O)c8cc(*)c(*)cc8C7=O)c(C)c6C)c(=O)c5cc4oc3cc21` (repeat unit) had a CH4 permeability of 27 Barrer, a CO2 permeability of 520 Barrer, an H2 permeability of 360 Barrer and an N2 permeability of 23 Barrer. Besides, the O2 permeability came out at 85 Barrer.

In turn, `*Oc1cc2c(cc1O*)C1(c3ccccc3-2)c2ccccc2-c2cc3c(cc21)Oc1c(C#N)c(*)c(*)c(C#N)c1O3` (repeat unit) came in with a CH4 permeability of 622 Barrer, a CO2 permeability of 8890 Barrer, an H2 permeability of 4520 Barrer and an N2 permeability of 442 Barrer. Moreover, the O2 permeability is 1620 Barrer.

`*C(F)(F)C1(F)OC(F)(F)C(F)(F)C1(F)C(*)(F)F` (repeat unit) yielded a CH4 permeability of 2 Barrer, a CO2 permeability of 35 Barrer, an H2 permeability of 59 Barrer and an N2 permeability of 5 Barrer. For the same compound, the O2 permeability was found to be 16 Barrer.

For the compound `*Oc1ccc(C(=O)c2ccc(Oc3c(C)cc(-c4cc(C)c(*)c(C)c4)cc3C)cc2)cc1` (repeat unit), the CH4 permeability was 1.02 Barrer, the CO2 permeability was determined as 19.4 Barrer, the N2 permeability came out at 0.971 Barrer and the O2 permeability amounted to 4.76 Barrer.

On to `*C(C(=O)OC(C)CC)C(*)C(=O)OC(C)(C)C` (repeat unit), for which the H2 permeability is 145 Barrer, the N2 permeability is 13 Barrer and the O2 permeability was determined as 39 Barrer.

Take `*C(C(=O)OC(C)C)C(*)C(=O)OC(C)CC` (repeat unit): the H2 permeability stood at 51 Barrer, the N2 permeability amounted to 5 Barrer and the O2 permeability was 12 Barrer.

With `*C(=C(*)c1ccc2c(c1)C(C)(C)c1ccccc1-2)c1ccc([Si](C)(C)C)cc1` (repeat unit), the CH4 permeability turned out to be 525 Barrer, the CO2 permeability is 1900 Barrer, the H2 permeability was 1040 Barrer and the N2 permeability turned out to be 200 Barrer. This compound also displayed an O2 permeability of 455 Barrer.

`*c1ccc(Oc2ccc(C(*)(c3ccccc3)C(F)(F)F)cc2)cc1` (repeat unit) had a CH4 permeability of 0.65 Barrer, a CO2 permeability of 17 Barrer, an H2 permeability of 28 Barrer and an N2 permeability of 0.69 Barrer. The compound also yielded an O2 permeability of 3.5 Barrer.

Take `*Oc1ccc(C23CC4CC(C2)CC(c2ccc(Oc5ccc(S(=O)(=O)c6ccc(*)cc6)cc5)cc2)(C4)C3)cc1` (repeat unit): the CH4 permeability was found to be 0.396 Barrer, the CO2 permeability is 9.5 Barrer, the H2 permeability is 27.8 Barrer and the N2 permeability was 0.455 Barrer. Besides, the O2 permeability was found to be 2.55 Barrer.

In the case of `*C(=O)n1c(*)nc2cc3nc4c5ccc(*)c6c(*)ccc(c(=O)n4c3cc21)c65` (repeat unit), the CH4 permeability worked out at 0.0017 Barrer, the CO2 permeability turned out to be 0.12 Barrer, the N2 permeability was 0.00259 Barrer and the O2 permeability was found to be 0.021 Barrer.

Take `*C/C(C)=C(\C)C*` (repeat unit): the CH4 permeability was found to be 0.786 Barrer, the CO2 permeability is 7.47 Barrer, the H2 permeability came to 17 Barrer and the N2 permeability came out at 0.472 Barrer. The O2 permeability was found to be 2.1 Barrer.

Consider `*c1ccc(Cc2ccc(N3C(=O)c4ccc(-c5ccc6c(c5)C(=O)N(*)C6=O)cc4C3=O)cc2Br)c(Br)c1` (repeat unit), for which the CH4 permeability was found to be 0.0054 Barrer, the CO2 permeability turned out to be 0.315 Barrer, the N2 permeability was found to be 0.0103 Barrer and the O2 permeability was 0.0923 Barrer.

`*Oc1ccc(C(C)(C)c2ccc(OC(=O)c3cccc(C(*)=O)c3)cc2)cc1` (repeat unit): the CH4 permeability turned out to be 0.269 Barrer, the CO2 permeability amounted to 5.6 Barrer, the N2 permeability was determined as 0.272 Barrer and the O2 permeability came out at 1.45 Barrer.

As for `*Oc1ccc2c(c1)-c1nc3cc(Oc4ccc5nc6n(c5c4)C(=O)c4cc(*)ccc4-6)ccc3n1C2=O` (repeat unit), the H2 permeability came out at 6.88 Barrer, the N2 permeability is 0.026 Barrer and the O2 permeability came to 0.22 Barrer.

For `*c1c(C)cc(Cc2cc(C)c(N3C(=O)c4ccc(-c5ccc6c(c5)C(=O)N(*)C6=O)cc4C3=O)c(C)c2)cc1C` (repeat unit), the CH4 permeability is 0.818 Barrer, the CO2 permeability stood at 22.4 Barrer, the N2 permeability stood at 0.913 Barrer and the O2 permeability was determined as 4.73 Barrer.

`*C(=C(*)c1ccc2c(c1)C(C)(C)CCC2(C)C)c1ccccc1` (repeat unit) returned a CH4 permeability of 6600 Barrer, a CO2 permeability of 11400 Barrer, an H2 permeability of 7700 Barrer and an N2 permeability of 2700 Barrer. This compound registered an O2 permeability of 3900 Barrer.

Regarding `*C(=C(*)c1ccc2c(c1)C1(CC1)c1ccccc1-2)c1ccc([Si](C)(C)C)cc1` (repeat unit), the CH4 permeability came to 1500 Barrer, the CO2 permeability amounted to 4100 Barrer, the H2 permeability was determined as 1900 Barrer and the N2 permeability amounted to 540 Barrer. The O2 permeability is 1000 Barrer.

Compound `*Oc1cc2c(cc1O*)C(=O)N(c1c(C)c(C)c(-n3c(=O)c4cc5oc6cc7c(cc6oc5cc4c3=O)C3(C(C)C)c4ccccc4C7(C(C)C)c4cc(*)c(*)cc43)c(C)c1C)C2=O` (repeat unit) had a CH4 permeability of 83.7 Barrer, an H2 permeability of 3430 Barrer, an N2 permeability of 87.4 Barrer and an O2 permeability of 542 Barrer.

In turn, `*c1cc(C)c(C)c(N2C(=O)c3ccc(Oc4cc(C)ccc4Oc4ccc5c(c4)C(=O)N(*)C5=O)cc3C2=O)c1C` (repeat unit) came in with a CH4 permeability of 0.57 Barrer, a CO2 permeability of 22 Barrer, an H2 permeability of 41 Barrer and an N2 permeability of 0.65 Barrer. Further, the O2 permeability is 3.9 Barrer.

`*Oc1ccc(-c2c(-c3ccc(C)cc3)c(-c3ccc(C)cc3)c(-c3ccc4c(c3)Oc3c(C#N)c(*)c(*)c(C#N)c3O4)c(-c3ccc(C)cc3)c2-c2ccc(C)cc2)cc1O*` (repeat unit) displayed a CH4 permeability of 132 Barrer, a CO2 permeability of 1630 Barrer, an H2 permeability of 856 Barrer and an N2 permeability of 60 Barrer. In addition, the O2 permeability came to 256 Barrer.

In the case of `*Oc1c(C)cc(*)c(C(=O)c2ccc(Br)cc2)c1C` (repeat unit), the CH4 permeability came out at 1.13 Barrer, the CO2 permeability was 18 Barrer, the N2 permeability was 2.13 Barrer and the O2 permeability is 8.45 Barrer.

Regarding `*c1ccc(Oc2ccc(-n3c(=O)c4cc5sc6cc7c(=O)n(*)c(=O)c7cc6sc5cc4c3=O)cc2)cc1` (repeat unit), the CH4 permeability was 0.082 Barrer, the CO2 permeability came out at 4 Barrer, the H2 permeability worked out at 11 Barrer and the N2 permeability worked out at 0.11 Barrer. The compound further registered an O2 permeability of 0.74 Barrer.

Compound `*Oc1ccc(C(c2ccc(OC(=O)c3cccc(C(*)=O)c3)cc2)(C(F)(F)F)C(F)(F)F)cc1` (repeat unit) gave a CH4 permeability of 0.736 Barrer, a CO2 permeability of 16.6 Barrer, an H2 permeability of 37.3 Barrer and an N2 permeability of 0.958 Barrer. In addition, the O2 permeability was found to be 4.54 Barrer.

The compound `*c1c(C)cc2c(c1C)C1c3ccccc3C2c2cc(C)c(N3C(=O)C4C5C=CC(C6C(=O)N(*)C(=O)C56)C4C3=O)c(C)c21` (repeat unit) had a CH4 permeability of 69 Barrer, a CO2 permeability of 1310 Barrer, an H2 permeability of 1600 Barrer and an N2 permeability of 71 Barrer. Moreover, the O2 permeability is 308 Barrer.

`*CC(*)Cl` (repeat unit) gave a CH4 permeability of 0.0263 Barrer, a CO2 permeability of 0.16 Barrer, an H2 permeability of 1.79 Barrer and an N2 permeability of 0.0109 Barrer. Also, the O2 permeability stood at 0.0453 Barrer.

The compound `*C(=C(*)c1ccc2c(c1)C(C)(C)CC2(C)C)c1ccccc1` (repeat unit) had a CH4 permeability of 29100 Barrer, a CO2 permeability of 38700 Barrer, an H2 permeability of 24800 Barrer and an N2 permeability of 11600 Barrer. The compound also yielded an O2 permeability of 14400 Barrer.

As to `*Oc1ccc(C2(c3ccc(Oc4ccc(S(=O)(=O)c5ccc(*)cc5)cc4)c(C)c3)OC(=O)c3ccccc32)cc1C` (repeat unit), the CH4 permeability was determined as 0.0727 Barrer, the CO2 permeability was determined as 3.12 Barrer, the H2 permeability turned out to be 10.8 Barrer and the N2 permeability is 0.11 Barrer. This compound also showed an O2 permeability of 0.868 Barrer.

For `*Oc1ccc(S(=O)(=O)c2ccc(Oc3ccc4cc(*)ccc4c3)cc2)cc1` (repeat unit), the CH4 permeability stood at 0.0366 Barrer, the CO2 permeability is 1.5 Barrer, the H2 permeability worked out at 7.25 Barrer and the N2 permeability is 0.0507 Barrer. Further, the O2 permeability came to 0.38 Barrer.

`*c1c(C)cc(-c2cc(C)c(N3C(=O)c4cc5c(cc4C3=O)C3(C(C)C)c4ccccc4C5(C(C)C)c4cc5c(cc43)C(=O)N(*)C5=O)c3ccccc23)c2ccccc12` (repeat unit) yielded a CH4 permeability of 190 Barrer, a CO2 permeability of 2910 Barrer, an H2 permeability of 2170 Barrer and an N2 permeability of 145 Barrer. The compound further registered an O2 permeability of 550 Barrer.

Take `*c1ccc(Cc2ccc(N3C(=O)c4cc(Oc5ccccc5)c(-c5cc6c(cc5Oc5ccccc5)C(=O)N(*)C6=O)cc4C3=O)cc2)cc1` (repeat unit): the CH4 permeability came to 0.85 Barrer, the CO2 permeability came out at 29 Barrer, the N2 permeability came to 0.73 Barrer and the O2 permeability is 3.36 Barrer.

`*c1cccc(N2C(=O)c3ccc(C(c4ccc5c(c4)C(=O)N(*)C5=O)(C(F)(F)F)C(F)(F)F)cc3C2=O)c1C` (repeat unit) returned a CH4 permeability of 0.88 Barrer, a CO2 permeability of 36.2 Barrer, an H2 permeability of 102 Barrer and an N2 permeability of 1.89 Barrer. Further, the O2 permeability was found to be 10.8 Barrer.

With `*Oc1c(C)cc(C(C)(C)c2cccc(C(C)(C)c3cc(C)c(Oc4ccc(S(=O)(=O)c5ccc(*)cc5)cc4)c(C)c3)c2)cc1C` (repeat unit), the CH4 permeability is 0.28 Barrer, the CO2 permeability was determined as 7 Barrer, the H2 permeability was determined as 20 Barrer and the N2 permeability came to 0.281 Barrer. The O2 permeability came out at 1.8 Barrer.

In the case of `*Oc1cc2c(cc1O*)C1(CC2(C)C)CC(C)(C)c2cc3c(cc21)Oc1c(C#N)c(*)c(*)c(C(=O)O)c1O3` (repeat unit), the CO2 permeability is 2540 Barrer, the H2 permeability came to 1540 Barrer, the N2 permeability stood at 162 Barrer and the O2 permeability was 534 Barrer.
